{"source": "paper PMC7884382", "about": "“A Phase 1 study of RO6870810, a novel bromodomain and extra-terminal protein inhibitor, in patients with NUT carcinoma, other solid tumours, or diffuse large B-cell lymphoma” (British Journal of Cancer, 2020)", "origin": "cited, not measured here", "key": {"NC": {"tested_on": "NC", "settings": "cited from earlier work"}, "serotonin receptors": {"tested_on": "serotonin receptors", "design": "method as in PMID 20871596", "settings": "cited from earlier work"}, "[1]": {"settings": "cited from earlier work"}, "DLBCL": {"tested_on": "DLBCL", "design": "method as in PMID 27063978", "settings": "cited from earlier work"}}}
{"smiles": "Cc1nnn(C)c1-c1cnc2c3ccc(C(C)(C)O)cc3n([C@H](c3ccccc3)C3CCOCC3)c2c1", "note": "[BMS-986158]", "values": [{"measurement": "Response in a patient with NC harbouring BRD3-NUT fusion", "setting": "NC", "value": "minor but sustained regression"}]}
{"smiles": "Cc1sc2c(c1C)C(c1ccc(Cl)cc1)=N[C@@H](CC(=O)OC(C)(C)C)c1nnc(C)n1-2", "note": "[JQ1]", "values": [{"measurement": "Interaction with serotonin receptors", "setting": "serotonin receptors", "value": "interaction with serotonin receptors"}]}
{"smiles": "Cc1sc2c(c1C)C(c1ccc(Cl)cc1)=N[C@@H](CC(=O)Nc1ccc(O)cc1)c1nnc(C)n1-2", "note": "[birabresib]", "values": [{"measurement": "half-life", "setting": "[1]", "value": "4 to 5", "unit": "h"}, {"measurement": "CRs", "setting": "DLBCL; among 22 patients with DLBCL", "value": 2}, {"measurement": "PR", "setting": "DLBCL; among 22 patients with DLBCL", "value": 1}, {"measurement": "Responders among patients with MYC-expressing DLBCL", "setting": "DLBCL", "value": "one of five"}]}
{"smiles": "CCNC(=O)C[C@@H]1N=C(c2ccc(Cl)cc2)c2cc(OC)ccc2-n2c(C)nnc21", "note": "[molibresib]", "values": [{"measurement": "Responses by NUT fusion among patients with NC", "setting": "NC", "value": "PRs (confirmed and unconfirmed) were mostly observed in tumours with BRD3-NUT fusions"}]}
